Patent US20220195383A1, “METHOD FOR PRODUCING PLURIPOTENT STEM CELLS” (KANEKA CORPORATION, priority 2019, published 2022)

Columns and labels:
[1] = test system: human iPS cell line 201B7; test: Quantitative real-time PCR of marker genes after suspension culture with IWP-2; format: cell-based; details: IWP-2 2 μM, line 201B7, day 10 (Example 1)
Experimental: Cells on day 10 of the culture were treated with Accutase for 3 to 10 minutes and dispersed into single cells by pipetting. These cells were lysed using TRIzol™ Reagent (Thermo Fisher Scientific K.K.). Total RNA was isolated and purified from a cell solution obtained by lysing with TRIzol™ Reagent using a PureLink (registered trademark) RNA Mini kit (Thermo Fisher Scientific K.K.). A concentration of the purified RNA was measured using BioSpec-nano (Shimadzu Corporation), and 40 ng was separated. 2 μL of ReverTra Ace (registered trademark) qPCR RT Master Mix (TOYOBO CO., LTD.) and RNase Free dH2O were added to the separated RNA to prepare 10 μL. cDNA synthesis was performed using SimpliAmp Thermal Cycler (Thermo Fisher Scientific K.K.). […] A synthesized cDNA solution was diluted 100-fold with 10 mM Tris-HCl pH 8.0 (NACALAI TESQUE, INC.) and added to a 384-well PCR plate (Thermo Fisher Scientific K.K.) at 5 μL/well. KOD SYBR® qPCR Mix (TOYOBO CO., LTD.), a Forward primer prepared to 50 μM, a Reverse primer prepared to 50 μM, and DEPC-treated water (NACALAI TESQUE, INC.) were mixed at a ratio of 100:1:1:48. This mixed solution was added to the above-mentioned 384-well PCR plate at 15 μL/well and mixed. For the primers, bACT, OCT4, SOX2, Nanog, Brachyury, and SOX17 were used. The 384-well PCR plate was subjected to centrifugal separation to remove air bubbles in the wells, and quantitative real-time PCR analysis was performed using QuantStudio 7 Flex Real-Time PCR System (Thermo Fisher Scientific K.K.).
Suspension culture was performed under a condition in which an amount of WNT protein contained in a unit of a medium in contact with a unit area of a cell surface was maintained at 2.9×10^2 μg/mL·cm^2 or less. Specifically, the human iPS cell line 201B7 maintenance-cultured by the method in Step 1 of Example 1 was treated with Accutase for 3 to 5 minutes to release the cells from the dish. The cells were dispersed into single cells by pipetting. These cells were suspended in a StemFit (registered trademark) AK02N medium containing Y-27632 at a final concentration of 10 μM. A part of the cells was stained with trypan blue to measure the number of living cells. A cell suspension was prepared so that it contained 2×10^5 cells per mL using the StemFit (registered trademark) AK02N medium containing Y-27632 a final concentration of 10 μM. 4 mL of the cell suspension per well was seeded in a 6-well plate for suspension culture (Sumitomo Bakelite Co., Ltd.). IWP-2 (FUJIFILM Wako Pure Chemical Corporation), which is a WNT protein secretion inhibitor, was added to the seeded wells so that a final concentration was 2 μM. The plate in which the cells were seeded was gyrated on a rotary shaker (Optima Instruments) at a speed of 83 rpm so that a gyrating width (diameter) drew a circle of 25 mm along a horizontal plane, and suspension culture was performed at 37° C. in a 5% CO2 environment. The day when the cells were seeded was defined as day 0 of the culture. Passage was performed on day 5 of the culture, and suspension culture was performed until day 10 of the culture. Medium exchange was performed as follows. A total amount of the medium containing cell aggregates was recovered in a centrifuge tube and left to stand for about 5 minutes to precipitate the cell aggregates. Thereafter, the culture supernatant was removed. […]

WNT3A protein [2] = test: ELISA analysis of WNT3A protein in culture supernatant, suspension culture with IWP-2, line 201B7; format: cell-based, human; details: IWP-2 2 μM, line 201B7, day 5 (Example 1)
Experimental: A reagent and a reaction plate attached to a WNT3A ELISA kit (Aviva Systems Biology Corporation) were returned to room temperature. A vial of WNT3A Standard attached to the kit was subjected to centrifugal separation, and a powder in the vial was collected. After adding 1 mL of a diluent solution attached to the kit and mixing, the mixture was left to stand at room temperature for 15 minutes to prepare a WNT3A solution at a final concentration of 10 ng/mL. Based on the WNT3A solution at a final concentration of 10 ng/mL, the solution was diluted with the diluent solution attached to the kit to create WNT3A solution dilution series at final concentrations of 0.156 ng/mL, 0.313 ng/mL, 0.625 ng/mL, 1.25 ng/mL, 2.5 ng/mL, and 5 ng/mL. The dilution series of 0.156 ng/mL to 10 ng/mL and the culture supernatant on day 5 of the culture were added to the reaction plate at 100 μL/well, and a plate seal was attached. […]
Absorbance was measured at 450 nm (corrected wavelength 540 nm) using SpectraMax i3x Multi-Mode Detection Platform (Molecular Devices, LLC.), and a concentration of the WNT3A protein contained in the medium was calculated. Furthermore, an amount of the WNT3A protein of cells (pg/10^4 cells) was calculated from the results of measuring the number of living cells on day 5 of the culture according to the following equation. […]

WNT3A protein [3] = test: ELISA analysis of WNT3A protein in culture supernatant, suspension culture with IWP-2, line RPChiPS771-2; format: cell-based, human; details: IWP-2 2 μM, line RPChiPS771-2, day 5 (Example 2)
[4] = test system: human iPS cell line RPChiPS771-2; test: Quantitative real-time PCR of marker genes after suspension culture with IWP-2; format: cell-based; details: IWP-2 2 μM, line RPChiPS771-2, day 10 (Example 2)

Compound: Cc1ccc2nc(NC(=O)CSc3nc4c(c(=O)n3-c3ccccc3)SCC4)sc2c1 [IWP-2]
- Relative gene expression level with respect to ACTB in 2 ^∧ Ct, Nanog [1]: 1.30 × 10^−2
- Relative gene expression level with respect to ACTB in 2 ^∧ Ct, OCT4 [1]: 1.77 × 10^−1
- Relative gene expression level with respect to ACTB in 2 ^∧ Ct, SOX2 [1]: 2.83 × 10^−2
- Relative gene expression level with respect to ACTB in 2 ^∧ Ct, Brachyury ([1]; dash = not detected): not detected
- Relative gene expression level with respect to ACTB in 2 ^∧ Ct, SOX17 ([1]; dash = not detected): not detected
- Amount of WNT3A protein contained in unit of medium in contact with unit area of cell surface, average value (n = 10) (WNT3A protein [2]): 2.7 × 10^2 μg/mL · cm^2
- Concentration of WNT3A protein contained in medium (WNT3A protein [2]): 83.9 pg/mL
- Concentration of WNT3A protein contained in medium (WNT3A protein [3]): 53.3 pg/mL
- Relative gene expression level with respect to ACTB in 2 ^∧ Ct, Nanog [4]: 8.16 × 10^−1
- Relative gene expression level with respect to ACTB in 2 ^∧ Ct, OCT4 [4]: 5.72 × 10^−1
- Relative gene expression level with respect to ACTB in 2 ^∧ Ct, SOX2 [4]: 2.31 × 10^−2
- Relative gene expression level with respect to ACTB in 2 ^∧ Ct, Brachyury ([4]; dash = not detected): not detected
- Relative gene expression level with respect to ACTB in 2 ^∧ Ct, SOX17 ([4]; dash = not detected): not detected
